Measured values taken from ChEMBL document CHEMBL1152855, “Regioselective synthesis of dispiro[1H-indene-2,3'-pyrrolidine-2',3''-[3H]indole]-1,2''(1''H)-diones of potential anti-tumor properties” (2009).

Tests used:
HOP-62 = experiment: Growth inhibition of human HOP62 cells at 10 uM after 48 hrs by sulforhodamine B assay; format: functional; conditions: HOP-62, 48 h, values are per cent of control
HOP-92 = experiment: Growth inhibition of human HOP92 cells at 10 uM after 48 hrs by sulforhodamine B assay; format: functional; conditions: HOP-92, 48 h, read-out: GI
NCI-H23 = experiment: Growth inhibition of human NCI-H23 cells at 10 uM after 48 hrs by sulforhodamine B assay; format: functional; conditions: NCI-H23, 48 h, values are per cent of control
NCI-H460 = experiment: Growth inhibition of human NCI-H460 cells at 10 uM after 48 hrs by sulforhodamine B assay; format: functional; conditions: NCI-H460, 48 h, values are per cent of control
COLO 205 = experiment: Growth inhibition of human COLO205 cells at 10 uM after 48 hrs by sulforhodamine B assay; format: functional; conditions: COLO 205, 48 h, values are per cent of control
HCC 2998 = experiment: Growth inhibition of human HCC2998 cells at 10 uM after 48 hrs by sulforhodamine B assay; format: functional; conditions: HCC 2998, 48 h, values are per cent of control
HCT-15 = experiment: Growth inhibition of human HCT15 cells at 10 uM after 48 hrs by sulforhodamine B assay; format: functional; conditions: HCT-15, 48 h, values are per cent of control
HT-29 = experiment: Growth inhibition of human HT-29 cells at 10 uM after 48 hrs by sulforhodamine B assay; format: functional; conditions: HT-29, 48 h, values are per cent of control
KM12 = experiment: Growth inhibition of human KM12 cells at 10 uM after 48 hrs by sulforhodamine B assay; format: functional; conditions: KM12, 48 h, values are per cent of control
SW-620 = experiment: Growth inhibition of human SW620 cells at 10 uM after 48 hrs by sulforhodamine B assay; format: functional; conditions: SW-620, 48 h, values are per cent of control
[1] = Growth inhibition of human Hs 578T cells at 10 uM after 48 hrs by sulforhodamine B assay; format: functional; conditions: values are per cent of control
MCF7 = experiment: Growth inhibition of human MCF7 cells at 10 uM after 48 hrs by sulforhodamine B assay; format: functional; conditions: MCF7, 48 h, values are per cent of control
MDA-MB-231 = experiment: Growth inhibition of human MDA-MB-231 cells at 10 uM after 48 hrs by sulforhodamine B assay; format: functional; conditions: MDA-MB-231, 48 h, values are per cent of control
MDA-MB-435 = experiment: Growth inhibition of human MDA-MB-435 cells at 10 uM after 48 hrs by sulforhodamine B assay; format: functional; conditions: MDA-MB-435, 48 h, values are per cent of control
NCI/ADR-RES = experiment: Growth inhibition of human NCI/ADR-RES cells at 10 uM after 48 hrs by sulforhodamine B assay; format: functional; conditions: values are per cent of control
OVCAR-4 = experiment: Growth inhibition of human OVCAR4 cells at 10 uM after 48 hrs by sulforhodamine B assay; format: functional; conditions: OVCAR-4, 48 h, values are per cent of control
OVCAR-8 = experiment: Growth inhibition of human OVCAR8 cells at 10 uM after 48 hrs by sulforhodamine B assay; format: functional; conditions: OVCAR-8, 48 h, read-out: GI
SK-OV-3 = experiment: Growth inhibition of human SKOV3 cells at 10 uM after 48 hrs by sulforhodamine B assay; format: functional; conditions: SK-OV-3, 48 h, values are per cent of control
CCRF-CEM = experiment: Growth inhibition of human CCRF-CEM cells at 10 uM after 48 hrs by sulforhodamine B assay; format: functional; conditions: values are per cent of control
K562 = experiment: Growth inhibition of human K562 cells at 10 uM after 48 hrs by sulforhodamine B assay; format: functional; conditions: K562, 48 h, values are per cent of control
MOLT-4 = experiment: Growth inhibition of human MOLT4 cells at 10 uM after 48 hrs by sulforhodamine B assay; format: functional; conditions: MOLT-4, 48 h, values are per cent of control
RPMI-8226 = experiment: Growth inhibition of human RPMI8226 cells at 10 uM after 48 hrs by sulforhodamine B assay; format: functional; conditions: RPMI-8226, 48 h, read-out: GI
A498 = experiment: Growth inhibition of human A498 cells at 10 uM after 48 hrs by sulforhodamine B assay; format: functional; conditions: A498, 48 h, values are per cent of control
ACHN = experiment: Growth inhibition of human ACHN cells at 10 uM after 48 hrs by sulforhodamine B assay; format: functional; conditions: values are per cent of control
SN12C = experiment: Growth inhibition of human SN12C cells at 10 uM after 48 hrs by sulforhodamine B assay; format: functional; conditions: values are per cent of control
Rattus norvegicus [2] = experiment: Antiinflammatory activity against carrageenan-induced paw edema in Wister albino rat assessed as inhibition of edema at 50 mg/kg, ip administered 1 hr prior to carrageenan challenge measured after 4 hrs relative to indomethacin; format: functional; conditions: route intraperitoneal
UO-31 = experiment: Growth inhibition of human UO31 cells at 10 uM after 48 hrs by sulforhodamine B assay; format: functional; conditions: UO-31, 48 h, values are per cent of control
LOX IMVI = experiment: Growth inhibition of human LOXIMVI cells at 10 uM after 48 hrs by sulforhodamine B assay; format: functional; conditions: values are per cent of control
SK-MEL-28 = experiment: Growth inhibition of human SK-MEL-28 cells at 10 uM after 48 hrs by sulforhodamine B assay; format: functional; conditions: SK-MEL-28, 48 h, values are per cent of control
SK-MEL-5 = experiment: Growth inhibition of human SK-MEL-5 cells at 10 uM after 48 hrs by sulforhodamine B assay; format: functional; conditions: SK-MEL-5, 48 h, values are per cent of control
UACC-62 = experiment: Growth inhibition of human UACC62 cells at 10 uM after 48 hrs by sulforhodamine B assay; format: functional; conditions: UACC-62, 48 h, values are per cent of control
DU-145 = experiment: Growth inhibition of human DU145 cells at 10 uM after 48 hrs by sulforhodamine B assay; format: functional; conditions: DU-145, 48 h, values are per cent of control
SF-268 = experiment: Growth inhibition of human SF268 cells at 10 uM after 48 hrs by sulforhodamine B assay; format: functional; conditions: SF-268, 48 h, values are per cent of control
SF-539 = experiment: Growth inhibition of human SF539 cells at 10 uM after 48 hrs by sulforhodamine B assay; format: functional; conditions: SF-539, 48 h, values are per cent of control
SNB-19 = experiment: Growth inhibition of human SNB19 cells at 10 uM after 48 hrs by sulforhodamine B assay; format: functional; conditions: SNB-19, 48 h, values are per cent of control
Rattus norvegicus [3] = experiment: Antiinflammatory activity against carrageenan-induced paw edema in Wister albino rat assessed as inhibition of edema at 50 mg/kg, ip administered 1 hr prior to carrageenan challenge measured after 1 hr relative to control; format: functional; conditions: route intraperitoneal
Rattus norvegicus [4] = experiment: Antiinflammatory activity against carrageenan-induced paw edema in Wister albino rat assessed as inhibition of edema at 50 mg/kg, ip administered 1 hr prior to carrageenan challenge measured after 2 hrs relative to control; format: functional; conditions: route intraperitoneal
TK-10 = experiment: Growth inhibition of human TK10 cells at 10 uM after 48 hrs by sulforhodamine B assay; values are per cent of control; conditions: TK-10, 48 h

Compound	growth, % of control at 10 µM (HOP-62) [%]	inhibition of growth at 10 µM (HOP-92) [%]	growth, % of control at 10 µM (NCI-H23) [%]	growth, % of control at 10 µM (NCI-H460) [%]	growth, % of control at 10 µM (COLO 205) [%]	growth, % of control at 10 µM (HCC 2998) [%]	growth, % of control at 10 µM (HCT-15) [%]	growth, % of control at 10 µM (HT-29) [%]	growth, % of control at 10 µM (KM12) [%]	growth, % of control at 10 µM (SW-620) [%]	growth, % of control at 10 µM [1] [%]	growth, % of control at 10 µM (MCF7) [%]	growth, % of control at 10 µM (MDA-MB-231) [%]	growth, % of control at 10 µM (MDA-MB-435) [%]	growth, % of control at 10 µM (NCI/ADR-RES) [%]	growth, % of control at 10 µM (OVCAR-4) [%]	inhibition of growth at 10 µM (OVCAR-8) [%]	growth, % of control at 10 µM (SK-OV-3) [%]	growth, % of control at 10 µM (CCRF-CEM) [%]	growth, % of control at 10 µM (K562) [%]	also measured
[3H]N1C(=O)[C@@]2(c3ccccc31)N(C)C[C@@H](c1ccc(OC)cc1)[C@@]21Cc2ccccc2C1=O	100	62.5	89.3	107	100	76.7	107	138	95.3	87.5	16.8	120	74.4	124	89.4	118	55.3	97.3	87.3	93.9	growth, % of control at 10 µM (MOLT-4): 79.8%; inhibition of growth at 10 µM (RPMI-8226): 66.8%; growth, % of control at 10 µM (A498): 105%; growth, % of control at 10 µM (ACHN): 98.1%; growth, % of control at 10 µM (SN12C): 105%; activity relative to indomethacin (Rattus norvegicus [2]): 45%; growth, % of control at 10 µM (UO-31): 92.5%; growth, % of control at 10 µM (LOX IMVI): 80.5%; growth, % of control at 10 µM (SK-MEL-28): 108%; growth, % of control at 10 µM (SK-MEL-5): 101%; growth, % of control at 10 µM (UACC-62): 71.8%; growth, % of control at 10 µM (DU-145): 110%; growth, % of control at 10 µM (SF-268): 113%; growth, % of control at 10 µM (SF-539): 101%; growth, % of control at 10 µM (SNB-19): 92.2%; inhibition in vivo at 50 mg/kg (Rattus norvegicus [3]): 41.2%; inhibition in vivo at 50 mg/kg (Rattus norvegicus [4]): 17.5%; growth, % of control at 10 µM (TK-10): 176%
[3H]N1C(=O)[C@@]2(c3ccccc31)N(C)C[C@@H](c1cccs1)[C@@]21Cc2ccccc2C1=O	110	72.9	92	109	120	103	103	99.6	94.3	89.5	69.8	109	78.3	115	97.4	93	60.2	96.2	91.4	93.7	growth, % of control at 10 µM (MOLT-4): 67.7%; inhibition of growth at 10 µM (RPMI-8226): 89.1%; growth, % of control at 10 µM (A498): 102%; growth, % of control at 10 µM (ACHN): 97.9%; growth, % of control at 10 µM (SN12C): 99.6%; activity relative to indomethacin (Rattus norvegicus [2]): 41%; growth, % of control at 10 µM (UO-31): 95.8%; growth, % of control at 10 µM (LOX IMVI): 80%; growth, % of control at 10 µM (SK-MEL-28): 117%; growth, % of control at 10 µM (SK-MEL-5): 114%; growth, % of control at 10 µM (UACC-62): 82%; growth, % of control at 10 µM (DU-145): 92%; growth, % of control at 10 µM (SF-268): 93.6%; growth, % of control at 10 µM (SF-539): 109%; growth, % of control at 10 µM (SNB-19): 99.8%; inhibition in vivo at 50 mg/kg (Rattus norvegicus [3]): 49.9%; inhibition in vivo at 50 mg/kg (Rattus norvegicus [4]): 39.1%; growth, % of control at 10 µM (TK-10): 144%
